From patent publication US6436992B1, “Use of fumaric acid derivatives” (Fumapharm AG, priority 1997, dated 2002)

System: haemagglutinin formation in mice
Experiment: Inhibition of haemagglutinin formation in mice immunised with sheep erythrocytes, after peroral administration
Assay type: in vivo
[1] = mice, 150 mg/kg bodyweight p.o.
[2] = mice, 300 mg/kg bodyweight p.o.
[3] = mice, 600 mg/kg bodyweight p.o.

SMILES: COC(=O)/C=C/C(=O)[O-].[Ca+] [Methyl hydrogen fumarate-Ca salt]
- Inhibition of haemagglutinin formation in % [1]: 13%
- Suppression index [1]: 0.87
- Inhibition of haemagglutinin formation in % [2]: 20%
- Suppression index [2]: 0.80
- effect on haemagglutinin formation (in words) (mice, 300 mg/kg p.o.): slight reduction
- Inhibition of haemagglutinin formation in % [3]: 38%
- Suppression index [3]: 0.62
- suppressive effect on haemagglutinin formation (in words, over dose range) (mice, 150, 300 and 600 mg/kg p.o.): dosage-dependent suppressive effect
- immuno-suppressive effect (conclusion) (mice, p.o.): significant immuno-suppressive effect
